Assay [1] has as its system HT-29 [B-Raf V600E mutant]. The experiment in a line: Anti-proliferative activity, SRB assay, 72 hours. The conditions noted are these: Homo sapiens, read-out: CELLULAR IC50 [μM] HT-29 [B-Raf V600E mutant]. The assay is classed as cell-based. The protocol:
We observed the surprising finding that compounds of the invention were useful in inhibiting proliferation of HT-29 tumor cells (see Table 3).
(§1) Cells were exposed to the test compounds at various concentrations appropriate to determine an IC50, for 72 hours, and cell proliferation was measured using the SRB assay according to Shekan et al (J Natl Cancer Inst (1990) 82, 1107-112) in order to estimate the IC50 values shown in Table 3.
(§2) Briefly, cells were plated in 96 well dishes 24 hours prior to compound addition at the densities specified in Table 11.1.
(§3) The assay was terminated with the addition of ice cold 10% TCA after growth medium has been removed and the plates were incubated over night at 4° C. The plates were then washed 5 times with water and 100 μl of a Sulforhodamine B solution ([…]) was added to each well. The plates were then incubated for 10 minutes at room temperature before removal of unbound dye by washing with 1% acetic acid. The bound dye was solubilized with 10 mM Trizma base and the absorbance read at OD520.
(§4) Inhibitory activity of the compounds was calculated as % inhibition of cell proliferation compared to cells treated with the solvent (DMSO).

The next assay has as its system A-431 [B-Raf wildtype]. The experiment in a line: Anti-proliferative activity, SRB assay, 72 hours. The conditions noted are these: Homo sapiens, read-out: CELLULAR IC50 [μM] A-431 [B-Raf wildtype]. In kind it is cell-based. The protocol:
as §1, §2, §3, §4
Background: In SRB staining, fixed cells bind dye roughly in proportion to their protein.

The target in another assay is T1, p38 (Homo sapiens, UniProt Q16539).
T1 construct: purchased Proteros biostructures GmbH (selectivity panel service)
The experiment in a line: Biochemical inhibition, standard selectivity panel (Proteros). Also on record: dose or concentration left out as unconfirmed. The protocol:
(§5) For example, selected compound of the present invention were tested in a standard selectivity panel including c-Raf, p38, and 22 other kinases (Proteros biostructures GmbH, Martinsried/Munich, Germany), under conditions of non-disclosure, non-dissemination and non-use.
(§6) In brief, selected compounds of the present invention were tested […] in triplicates against c-Raf, p38 as well as against Ab1, Akt1, Aur A, c-Kit, c-Raf, Cdk1/CycB, Chk1, FGFR3, Flt3, Fyn, IGF1-R, INSR, Lyn, MAPK-ERK1, PAK-4, PKCalpha, Plk1, Ret, ROCK2, RSK 1, c-Src, TIE2, and VEGF-R2.

In another assay the target is T2, C-Raf (Homo sapiens, UniProt P04049).
T2 construct: purchased Proteros biostructures GmbH (selectivity panel service)
The assay is described as above. Also on record: dose or concentration left out as unconfirmed. The protocol: as §5, §6

Structures are written as SMILES.

T2 sequence (P04049 whole entry): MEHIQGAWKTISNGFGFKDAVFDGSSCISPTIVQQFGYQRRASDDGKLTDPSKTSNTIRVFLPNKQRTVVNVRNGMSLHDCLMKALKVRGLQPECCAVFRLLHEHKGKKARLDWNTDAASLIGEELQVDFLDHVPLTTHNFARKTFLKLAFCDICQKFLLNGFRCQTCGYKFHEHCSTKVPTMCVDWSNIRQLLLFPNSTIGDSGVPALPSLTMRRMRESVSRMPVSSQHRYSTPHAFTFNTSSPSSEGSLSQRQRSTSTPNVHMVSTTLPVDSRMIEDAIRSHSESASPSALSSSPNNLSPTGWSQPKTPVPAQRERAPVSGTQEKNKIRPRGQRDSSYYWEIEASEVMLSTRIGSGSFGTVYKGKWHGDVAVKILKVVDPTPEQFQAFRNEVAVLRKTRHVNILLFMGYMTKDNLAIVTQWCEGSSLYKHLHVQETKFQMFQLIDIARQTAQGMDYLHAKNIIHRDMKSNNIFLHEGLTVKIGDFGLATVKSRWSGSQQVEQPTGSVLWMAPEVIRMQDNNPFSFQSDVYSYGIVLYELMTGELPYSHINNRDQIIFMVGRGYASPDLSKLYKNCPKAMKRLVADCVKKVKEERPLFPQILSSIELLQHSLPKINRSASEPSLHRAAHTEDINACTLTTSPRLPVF
T1 sequence (Q16539 whole entry): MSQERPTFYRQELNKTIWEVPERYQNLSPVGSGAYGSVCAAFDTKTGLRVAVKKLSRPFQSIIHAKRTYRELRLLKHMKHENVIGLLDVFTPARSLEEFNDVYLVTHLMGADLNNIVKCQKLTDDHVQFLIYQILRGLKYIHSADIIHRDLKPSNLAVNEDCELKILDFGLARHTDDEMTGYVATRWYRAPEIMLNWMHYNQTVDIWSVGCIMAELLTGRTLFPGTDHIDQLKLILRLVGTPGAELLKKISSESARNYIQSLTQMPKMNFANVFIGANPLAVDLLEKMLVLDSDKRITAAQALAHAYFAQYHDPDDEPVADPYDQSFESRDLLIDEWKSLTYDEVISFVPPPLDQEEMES

The term IC50 denotes the midpoint of a concentration-inhibition curve. Usually inhibition stands for the drop in the measured response relative to a control, in per cent. Take `COn1c(=O)c(-c2cc(NC(=O)c3ccc(Cl)c(OC(F)(F)F)c3)ccc2Cl)cc2cnc(NCCN(C)C)nc21` [Compound 30, 4-Chloro-N-(4-chloro-3-[2-(2-dimethylamino-ethylamino)-8-methoxy-7-oxo-7,8-dihydro-pyrido[2,3-d]pyrimidin-6-yl]-phenyl}-3-trifluoromethoxy-benzamide]: the IC50 in assay [1] is below 5 µM; with A-431 [B-Raf wildtype] it was above 10 µM. For the same compound, the inhibition on p38 and against C-Raf was above 70% throughout.

In the case of `COn1c(=O)c(-c2cc(NC(=O)Nc3ccc(C(F)(F)F)cc3)ccc2Cl)cc2cnc(NCCN(C)C)nc21` [Compound 41, 1-{4-Chloro-3-[2-(2-dimethylamino-ethylamino)-8-methoxy-7-oxo-7,8-dihydro-pyrido[2,3-d]pyrimidin-6-yl]-phenyl}-3-(4-trifluoromethyl-phenyl)-urea], the IC50 was below 5 µM in assay [1] and below 10 µM in the assay on A-431 [B-Raf wildtype]. Besides, the inhibition against p38 and against C-Raf was above 70% in each case.

On to `COn1c(=O)c(-c2cc(NC(=O)c3ccc(Cl)c(Cl)c3)ccc2Cl)cc2cnc(NCCN(C)C)nc21` [Compound 10, 3,4-Dichloro-N-{4-chloro-3-[2-(2-dimethylamino-ethylamino)-8-methoxy-7-oxo-7,8-dihydro-pyrido[2,3-d]pyrimidin-6-yl]-phenyl}-benzamide], for which the IC50 was below 5 µM in assay [1] and above 10 µM with A-431 [B-Raf wildtype]. The inhibition on p38 and on C-Raf was above 70% throughout.

With `COn1c(=O)c(-c2cc(NC(=O)c3cc(F)cc(C(F)(F)F)c3)ccc2Cl)cc2cnc(NCCN(C)C)nc21` [Compound 28], the IC50 in assay [1] is below 5 µM; with A-431 [B-Raf wildtype] it was above 10 µM. In addition, the inhibition against p38 and at C-Raf was above 70% throughout.

`COn1c(=O)c(-c2ccc(NC(=O)c3ccc(CN4CCN(C)CC4)cc3)cc2Cl)cc2cnc(NCCN(C)C)nc21` [Compound 53, N-{3-Chloro-4-[2-(2-dimethylamino-ethylamino)-8-methoxy-7-oxo-7,8-dihydro-pyrido[2,3-d]pyrimidin-6-yl]-phenyl}-4-(4-methyl-piperazin-1-ylmethyl)-benzamide]: the IC50 (in assay [1]; with A-431 [B-Raf wildtype]) was above 10 µM in each case.

For the compound `COn1c(=O)c(-c2ccc(NC(=O)c3ccc(Cl)c(C(F)(F)F)c3)cc2Cl)cc2cnc(NCCN(C)C)nc21` [Compound 6, 4-Chloro-N-{3-chloro-4-[2-(2-dimethylamino-ethylamino)-8-methoxy-7-oxo-7,8-dihydro-pyrido[2,3-d]pyrimidin-6-yl]-phenyl}-3-trifluoromethyl-benzamide], the IC50 in assay [1] is below 5 µM; in the assay with A-431 [B-Raf wildtype], below 10 µM.

As to `COc1ccc(C(F)(F)F)cc1C(=O)Nc1ccc(Cl)c(-c2cc3cnc(NCCN(C)C)nc3n(OC)c2=O)c1` [Compound 14, N-{4-Chloro-3-[2-(2-dimethylamino-ethylamino)-8-methoxy-7-oxo-7,8-dihydro-pyrido[2,3-d]pyrimidin-6-yl]-phenyl}-2-methoxy-5-trifluoromethyl-benzamide], the IC50 was below 5 µM in assay [1] and above 10 µM in the assay on A-431 [B-Raf wildtype].

On to `COn1c(=O)c(-c2cc(NC(=O)c3ccc(Cl)cc3)ccc2Cl)cc2cnc(NCCN(C)C)nc21` [Compound 38, 4-Chloro-N-{4-chloro-3-[2-(2-dimethylamino-ethylamino)-8-methoxy-7-oxo-7,8-dihydro-pyrido[2,3-d]pyrimidin-6-yl]-phenyl}-benzamide], for which the IC50 (in assay [1]; in the assay on A-431 [B-Raf wildtype]) was above 10 µM each time.

`COn1c(=O)c(-c2cc(NC(=O)Nc3cccc(C(F)(F)F)c3F)ccc2Cl)cc2cnc(NCCN(C)C)nc21` [Compound 48, 1-{4-Chloro-3-[2-(2-dimethylamino-ethylamino)8-methoxy-7-oxo-7,8-dihydro-pyrido[2,3-d]pyrimidin-6-yl]-phenyl}-3-(2-fluoro-3-trifluoromethyl-phenyl)-urea]: the IC50 was below 5 µM in assay [1] and above 10 µM in the assay on A-431 [B-Raf wildtype].

`COn1c(=O)c(-c2cc(NC(=O)c3cc(Cl)nc(N4CCCCC4)c3)ccc2Cl)cc2cnc(NCCN(C)C)nc21` [Compound 60, 2-Chloro-N-(4-chloro-3-(2-(2-(dimethylamino)ethylamino)-8-methoxy-7-oxo-7,8-dihydropyrido[2,3-d]pyrimidin-6-yl)phenyl)-6-pyperidin-1-yl-isonicotinamide]: the concentration for half-maximal inhibition (IC50) in assay [1] is below 5 µM; in the assay on A-431 [B-Raf wildtype] it was below 10 µM.

As to `COn1c(=O)c(-c2cc(NC(=O)c3ccc(Cl)c(C(F)(F)F)c3)ccc2Cl)cc2cnc(NCCN(C)C)nc21` [Compound 3, 4-Chloro-N-{4-chloro-3-[2-(2-dimethylamino-ethylamino)-8-methoxy-7-oxo-7,8-dihydro-pyrido[2,3-d]pyrimidin-6-yl]-phenyl}-3-trifluoromethyl-benzamide], the concentration for half-maximal inhibition (IC50) was below 5 µM in assay [1] and above 10 µM with A-431 [B-Raf wildtype].

For `COn1c(=O)c(-c2cc(NC(=O)c3ccc(C(F)(F)F)c(F)c3)ccc2Cl)cc2cnc(NCCN(C)C)nc21` [Compound 12, N-{4-Chloro-3-[2-(2-dimethylamino-ethylamino)-8-methoxy-7-oxo-7,8-dihydro-pyrido[2,3-d]pyrimidin-6-yl]-phenyl}-3-fluoro-4-trifluoromethyl-benzamide], the IC50 is below 10 µM in assay [1] and above 10 µM in the assay with A-431 [B-Raf wildtype].

In the case of `COn1c(=O)c(-c2cc(NC(=O)c3cc(C(F)(F)F)cc(C(F)(F)F)c3)ccc2Cl)cc2cnc(NCCN(C)C)nc21` [Compound 35, N-{4-Chloro-3-[2-(2-dimethylamino-ethylamino)-8-methoxy-7-oxo-7,8-dihydro-pyrido[2,3-d]pyrimidin-6-yl]-phenyl}-3,5-bis-trifluoromethyl-benzamide], the IC50 was below 5 µM in assay [1] and above 10 µM in the assay with A-431 [B-Raf wildtype].

As for `COn1c(=O)c(-c2cc(NC(=O)Cc3cccc(C(F)(F)F)c3)ccc2Cl)cc2cnc(NCCN(C)C)nc21` [Compound 25, N-{4-Chloro-3-[2-(2-dimethylamino-ethylamino)-8-methoxy-7-oxo-7,8-dihydro-pyrido[2,3-d]pyrimidin-6-yl]-phenyl}-2-(3-trifluoromethyl-phenyl)-acetamide], the IC50 is below 5 µM in assay [1] and above 10 µM with A-431 [B-Raf wildtype].

For the compound `COn1c(=O)c(-c2cc(NC(=O)c3cc(Cl)nc(N4CCN(C)CC4)c3)ccc2Cl)cc2cnc(NCCN(C)C)nc21` [Compound 62, 2-Chloro-N-(4-chloro-3-(2-(2-(dimethylamino)ethylamino)-8-methoxy-7-oxo-7,8-dihydropyrido[2,3-d]pyrimidin-6-yl)phenyl)-6-(4-methyl-piperazin-1-yl)-isonicotinamide], the IC50 in assay [1] was below 5 µM; in the assay on A-431 [B-Raf wildtype] it was above 10 µM.

`COn1c(=O)c(-c2ccc(NC(=O)c3cc(C(C)(C)C)nn3-c3ccccc3)cc2Cl)cc2cnc(NCCN(C)C)nc21` [Compound 56, 5-tert-Butyl-2-phenyl-2H-pyrazole-3-carboxylic acid {3-chloro-4-[2-(2-dimethylamino-ethylamino)-8-methoxy-7-oxo-7,8-dihydro-pyrido[2,3-d]pyrimidin-6-yl]-phenyl}-amide]: the IC50 is below 5 µM in assay [1] and below 10 µM in the assay with A-431 [B-Raf wildtype].

As for `COn1c(=O)c(-c2cc(NC(=O)c3cc4ccccc4n3C)ccc2Cl)cc2cnc(NCCN(C)C)nc21` [Compound 13, 1-Methyl-1H-indole-2-carboxylic acid {4-chloro-3-[2-(2-dimethylamino-ethylamino)-8-methoxy-7-oxo-7,8-dihydro-pyrido[2,3-d]pyrimidin-6-yl]-phenyl}-amide], the IC50 in assay [1] is below 10 µM; in the assay with A-431 [B-Raf wildtype], above 10 µM.

As for `COn1c(=O)c(-c2cc(NC(=O)Nc3ccc(Cl)cc3)ccc2Cl)cc2cnc(NCCN(C)C)nc21` [Compound 46, 1-{4-Chloro-3-[2-(2-dimethylamino-ethylamino)-8-methoxy-7-oxo-7,8-dihydro-pyrido[2,3-d]pyrimidin-6-yl]-phenyl}-3-(4-chloro-phenyl)-urea], the 50% inhibitory concentration (IC50) in assay [1] is below 5 µM; with A-431 [B-Raf wildtype], above 10 µM.

Turning to `COn1c(=O)c(-c2cc(NC(=O)c3cc(Cl)nc(Cl)c3)ccc2Cl)cc2cnc(NCCN(C)C)nc21` [Compound 7, 2,6-Dichloro-N-(4-chloro-3-(2-(2-(dimethylamino)ethylamino)-8-methoxy-7-oxo-7,8-dihydropyrido[2,3-d]pyrimidin-6-yl)phenyl)-isonicotinamide], the half-inhibitory concentration (IC50) in assay [1] was below 10 µM; in the assay on A-431 [B-Raf wildtype], above 10 µM.

With `COn1c(=O)c(-c2cc(NC(=O)c3cc(Cl)nc(NC4CCN(C)CC4)c3)ccc2Cl)cc2cnc(NCCN(C)C)nc21` [Compound 66], the IC50 was below 10 µM in assay [1] and above 10 µM in the assay on A-431 [B-Raf wildtype].

(Values after patent US8232283B2, “Raf inhibitors” (Forma Therapeutics, Inc., priority 2008, dated 2012).)
